Test results from patent US20150297761A1, “PEPTIDIC STRUCTURES INCORPORATING AN AMINO ACID METAL COMPLEX AND APPLICATIONS IN MAGNETIC RESONANCE IMAGING” (THE GENERAL HOSPITAL CORPORATION, priority 2012, published 2015).
Values belong to the compound of their own block, whether it stands above or below them.

Tests used:
[1] = Relaxivity of DOTAlaP derivatives (Example 6); format: physicochemical
Experimental: Relaxivity. Longitudinal relaxation times T1, were measured on Bruker Minispecs mq20 (20 MHz) and mq60 (60 MHz) using an inversion recovery method with 10 inversion time values ranging from 0.05×T1 to 5×Ti. Relaxivity was calculated from a linear plot of 3 different concentrations ranging from 0.25 to 1.0 mM versus the corresponding inverse relaxation times. The temperature was adjusted to 37° C.

[2] = Ligand challenge, equilibrium constant Kcomp of [Gd(DTPA)(H2O)]2− vs. L; format: physicochemical; conditions: calculated from literature thermodynamic data
Experimental: As a means of assessing thermodynamic stability relative to other Gd(III)-complexes, [Gd(CyPic3A)(H2O)2]^− was challenged with DTPA in pH 7.4 25 mM Tris buffer. […] From this information it was possible to deduce equilibrium constants (Kcomp) for the competition reaction described in Equation 5,^31 where L=DTPA and L′=challenging chelator.
Equilibration of each solution was monitored by LC-MS. Relative distributions of [Gd(CyPic3A)(H2O)2]^− and CyPic3A were determined by integrating the corresponding absorbance traces at 280 nm. […] Kcomp values determined between [Gd(DTPA)(H2O)]^2− and various ligands were determined from conditional formation constants (Kcond)^4 values taken from the literature.^6-16 Direct comparisons were only made between Kcond values determined under identical conditions.

[3] = Relaxivity of Gd(DOTAla) metallopeptides and reference agents (T1 inversion recovery, 37° C.); format: physicochemical; conditions: for Relaxivity per Gd, 400 MHz: 400 MHz (9.4 T); for r1 [0.47 T], per molecule / r1 [1.4 T], per molecule: per molecule (in parentheses)
Experimental: Main numbers are given per Gd, numbers in parentheses are per molecule values. All numbers were determined at 37° C. using an inversion recovery sequence at concentrations ranging from 0.05 to 0.6 mM/Gd. Table 4 in Example 2 further expands the data of Table 1.
Per Gd relaxivities were determined by measuring T1 at 37° C. using 20, 60, 200, 400 and 500 MHz spectrometers. Relaxivities for MS-325 (with and without the presence of HSA) as a reference compound with a long τR and [Gd(HP-DO3A)(H2O)] as a reference for very short τR were also measured, and all the relaxivity data is tabulated in Table 4, together with results obtained from literature for the compounds with similar estimated τR. […] Additional rigidity through cyclization seems to provide only minor relaxivity increase for the dimeric and trimeric systems (Gd2C2 and Gd3C3).
(§1) Measurement of relaxivity. Longitudinal relaxation times T1, were measured on Bruker Minispecs mq20 (0.47 T) and mq60 (1.41 T), a Bruker Bioscan horizontal bore 4.7 T, 9.4 T and 11.7 T Varian NMR spectrometers. T1 was measured by using an inversion recovery method with 10 inversion time values ranging from 0.05×T1 to 5×T1. Relaxivity was calculated from a linear plot of 3 or 4 different concentrations (ranging from 0.01 to 0.5 mM, depending on amount of compound isolated) versus the corresponding inverse relaxation times. All samples were measured at 37° C. using either the internal temperature control of the instrument (0.47, 1.41, 9.4 and 11.7 T) or a warm air blower (4.7 T). MS-325/HSA was prepared in a 4.5% w/v solution of HSA (0.66 mM) in PBS. The MS-325 concentration (in presence of HSA) ranged from 0.05 to 0.15 mM.

[4] = Relaxivity before and after disulfide bond reduction with TCEP; format: physicochemical; conditions: for Relaxivity per Gd, TCEP reduced: after TCEP reduction of the disulfide bond; for Relaxivity per Gd, TCEP reduced / Relaxivity per Gd, cyclic / relaxivity r1, cyclic versus linearized (reduced) multimer: 37° C.; for Relaxivity per Gd, cyclic: first value column, before reduction; for relaxivity r1, cyclic versus linearized (reduced) multimer: 1.4 T; for relaxivity after disulfide bond reduction: 20 eq. TCEP 30 minutes, T1 at 37° C., field not stated in the sentence (0.47 and 1.41 T examined)
Experimental: Investigation of the effect of tertiary structure on relaxivity, was done by examination of the effect of disulfide bond reduction on T1 at 0.47 and 1.41 T. T1 was measured for each sample at 37° C. and then the samples were incubated with 20 eq. TCEP for 30 minutes at room temperature to reduce the intramolecular disulfide bond and give the linear peptide. Subsequently, the T1 values were remeasured and concentrations re-determined in order to calculate relaxivities. […] Over all, reduction of the disulfide bond has only a slight effect on relaxivity (FIGS. 16-18 and Table 5).
Reduction of disulfide bond for relaxivity measurements. Complex solutions of purified, cyclic Gd complexes (concentrations of 0.1-0.025 mM, 110 μL) in HEPES buffer (50 mM, pH 7.4) were mixed with TCEP solution (20 mM in HEPES, 10 μL) and incubated room temperature. Reduction was checked by LCMS analysis and found to be complete after 30 minutes.
as §1

[5] = molecular target: HSA (Homo sapiens, UniProt P02768); assay: HSA binding by ultrafiltration and ICP-MS (Example 3); format: in vitro ADME; conditions: 0.1 mM compound, 4.5% (w/v) HSA, 37° C.
HSA, sequence (P02768 25-609): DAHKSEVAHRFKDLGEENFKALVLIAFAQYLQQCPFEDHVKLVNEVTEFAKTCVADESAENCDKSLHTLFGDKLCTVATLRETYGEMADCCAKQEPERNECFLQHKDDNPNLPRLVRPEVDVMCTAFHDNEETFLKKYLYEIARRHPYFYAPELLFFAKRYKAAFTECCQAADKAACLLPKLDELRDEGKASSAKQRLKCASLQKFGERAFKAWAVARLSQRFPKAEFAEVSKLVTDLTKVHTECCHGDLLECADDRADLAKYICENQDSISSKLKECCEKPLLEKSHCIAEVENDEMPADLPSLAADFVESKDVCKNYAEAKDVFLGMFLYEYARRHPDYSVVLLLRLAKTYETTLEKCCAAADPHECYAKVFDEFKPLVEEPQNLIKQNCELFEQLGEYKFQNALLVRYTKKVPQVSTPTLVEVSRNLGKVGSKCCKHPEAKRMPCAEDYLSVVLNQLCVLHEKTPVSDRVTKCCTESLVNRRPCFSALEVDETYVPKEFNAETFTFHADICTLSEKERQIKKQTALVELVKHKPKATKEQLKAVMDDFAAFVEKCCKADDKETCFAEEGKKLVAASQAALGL
Experimental: In order to measure HSA binding of the complexes, a 0.1 mM solution (determined by ICP-MS) of the corresponding Gd complex in 4.5% w/v HSA was prepared and pipetted into a Ultrafree-MC Microcentrifuge Filter (NMWL 5,000 Da, PLCC, Millipore). The mixture is incubated at 37° C. for 10 minutes and subsequently centrifuged at 12,000 rpm for 15 minutes. Binding is determined by measurement of Gd content in the filtrate by ICP-MS.

[6] = Relaxivity in the absence and presence of HSA (Example 3); format: physicochemical
Experimental: ^1H and ^13C NMR spectra were recorded on a Varian 500 NMR system equipped with a 5 mm broadband probe. Longitudinal relaxation times, T1, were measured by using the inversion recovery method on Bruker Minispecs. mq20 (20 MHz) and mq60 (60 MHz). Purification via HPLC of intermediates toward Fmoc-DOTAla was performed using method A: Injection of crude mixture onto preparative HPLC on a Rainin, Dynamax (column: 250 mm Kromasil C18) by using A: 0.1% TFA in water, B: 0.1% TFA in MeCN, flow-rate 15 mL/min, 1 over 23 minutes. HPLC purity analysis (both UV and MS detection) was carried out on an Agilent 1100 system (column: Phenomenex Luna, C18(2) 100/2 mm) with UV detection at 220, 254 and 280 nm by using a method B: A gradient of A(0.1% formic acid in water) to 95% B(0.1% formic acid in MeCN), flow-rate 0.8 mL/min, 1 over 15 minutes.

[7] = 17O NMR of Gd complexes for determination of τM (Example 6); format: physicochemical; conditions: pH 7.4, 10 mM PBS; for ^310 TM (ns) / ^310kex × 10^6 (s^−1): 310 K
Experimental: ^17O NMR of Gd complexes for Determination of TM. ^17O NMR measurements of solutions were performed at 11.7 T on 350 μL samples contained in 5 mm standard NMR tubes on a Varian spectrometer. Temperature was regulated by air flow controlled by a Varian VT unit. ^17O transverse relaxation times of a >4 mM solution of Gd(3) and Gd(5a) (pH 7.4, 10 mM PBS buffer) were measured using a CPMG sequence. The concentration of the sample was determined by ICP-MS. Reduced relaxation rates, 1/T2r were calculated from the difference of 1/T2 between the sample and the water blank, and then divided by the mole fraction of coordinated water. The temperature dependence of 1/T2r was fit to a 4-parameter model as previously described. The Gd—O hyperfine-coupling constant, A/h, was assumed to be 3.8×10^6 rad/s, the Gd—O distance was assumed to be 3.1 Å.

Compound: 2,2′-(4-(2-carboxy-2-((1-(4-isobutylphenyl)ethyl)amino)ethyl)-10-(phosphonomethyl)-1,4,7,10-tetraazacyclododecane-1,7-diyl)diacetic acid [Gd(4b)]
r1 (20 MHz, 37° C., mM^−1s^−1) [1]: 4 mM⁻¹ s⁻¹
r1 (60 MHz, 37° C., mM^−1s^−1) [1]: 3.8 mM⁻¹ s⁻¹

Kcomp [Gd(DTPA)(H2O)]^2- vs. L pH 4 [2]: 0.091^9
Kcomp, [Gd(DTPA)(H2O)]^2- vs. L pH 7.4 [2]: .001^9
Compound: CC1(N(CC(=O)O)CC(=O)O)CN(CC(=O)O)CCN(CC(=O)O)C1 [AAZTA]

Relaxivity per Gd, 20 MHz [3]: 8.3 mM⁻¹ s⁻¹
Relaxivity per Gd, 60 MHz [3]: 7.1 mM⁻¹ s⁻¹
Relaxivity per Gd, 200 MHz [3]: 7.3 mM⁻¹ s⁻¹
Relaxivity per Gd, 400 MHz [3]: 5.1 mM⁻¹ s⁻¹
Relaxivity per Gd, 500 MHz [3]: 4.5 mM⁻¹ s⁻¹
r1 [0.47 T], per Gd [3]: 8.3 mM⁻¹ s⁻¹
r1 [1.4 T], per Gd [3]: 6.7 mM⁻¹ s⁻¹
Relaxivity per Gd, TCEP reduced [4]: 6.4 mM⁻¹ s⁻¹
Relaxivity per Gd, cyclic [4]: 7.1 mM⁻¹ s⁻¹
Compound: H2N—C(S^cycl)PG-DOTAla(Gd)-GC(S^cycl)CONH2 [GdC1]

% HSA binding [5]: 90%
r1 (20 MHz), absence of HSA ([6]; 20 MHz, absence of HSA (first value of cell)): 7.1 mM⁻¹ s⁻¹
r1 (20 MHz), presence of HSA ([6]; 20 MHz, presence of HSA (second value of cell)): 31.8 mM⁻¹ s⁻¹
r1 (60 MHz), absence of HSA ([6]; 60 MHz, absence of HSA (first value of cell)): 6.7 mM⁻¹ s⁻¹
r1 (60 MHz), presence of HSA ([6]; 60 MHz, presence of HSA (second value of cell)): 21.1 mM⁻¹ s⁻¹
Compound: 2,2′,2″-(10-(3-(((1-Carboxy-2-(4-hydroxy-3,5-diiodophenyl)ethyl)-amino)-2-(2-(4-isobutylphenyl)propanamido)-3-oxopropyl)-1,4,7,10-tetraazacyclododecane-1,4,7-triyl)triacetic Acid [Gd (8)]

relaxivity r1, cyclic versus linearized (reduced) multimer [4]: 9 mM⁻¹ s⁻¹
relaxivity after disulfide bond reduction [4]: 9 mM⁻¹ s⁻¹
Compound: H2N—C(SH)PG-DOTAla(Gd)-G-DOTAla(Gd)-GC(SH)CONH2 [Gd2C2-red]

Compound: O=C(O)CN1CCN(CC(=O)O)Cc2cccc(n2)CN(CC(=O)O)CC1 [PCTA]
Kcomp [Gd(DTPA)(H2O)]^2- vs. L pH 4 [2]: 0.064^10
Kcomp, [Gd(DTPA)(H2O)]^2- vs. L pH 7.4 [2]: 0.019^10

Relaxivity per Gd, 20 MHz [3]: 12.7 mM⁻¹ s⁻¹
Relaxivity per Gd, 60 MHz [3]: 12.3 mM⁻¹ s⁻¹
Relaxivity per Gd, 200 MHz [3]: 9.2 mM⁻¹ s⁻¹
Relaxivity per Gd, 400 MHz [3]: 6.6 mM⁻¹ s⁻¹
Relaxivity per Gd, 500 MHz [3]: 5.5 mM⁻¹ s⁻¹
r1 [0.47 T], per Gd [3]: 13.38 mM⁻¹ s⁻¹
r1 [1.4 T], per Gd [3]: 12.86 mM⁻¹ s⁻¹
r1 [0.47 T], per molecule [3]: 40.14 mM⁻¹ s⁻¹
r1 [1.4 T], per molecule [3]: 38.58 mM⁻¹ s⁻¹
Relaxivity per Gd, TCEP reduced [4]: 11.5 mM⁻¹ s⁻¹
Relaxivity per Gd, cyclic [4]: 12.3 mM⁻¹ s⁻¹
Compound: H2N—C(S^cycl)PG-DOTAla(Gd)-G-DOTAla(Gd)-G-DOTAla(Gd)-GC(S^cycl)CONH2 [Gd3C3]

relaxivity after disulfide bond reduction [4]: 11.5 mM⁻¹ s⁻¹
Compound: H2N—C(SH)PG-DOTAla(Gd)-G-DOTAla(Gd)-G-DOTAla(Gd)-GC(SH)CONH2 [Gd3C3-red]

r1 (20 MHz, 37° C., mM^−1s^−1) [1]: 6.4 mM⁻¹ s⁻¹
r1 (60 MHz, 37° C., mM^−1s^−1) [1]: 6.1 mM⁻¹ s⁻¹
ΔH^‡ [7]: 3.23 ± 0.268 kcal/mol
Compound: NC(CN1CCN(CC(=O)O)CCN(CP(=O)(O)O)CCN(CC(=O)O)CC1)C(=O)O (stereo not shown) [Gd(3), 2,2′-(4-(2-amino-2-carboxyethyl)-10-(phosphonomethyl)-1,4,7,10-tetra-azacyclododecane-1,7-diyl)diacetic acid]
^310 TM (ns) [7]: 8.1 ± 0.25 ns
^310kex × 10^6 (s^−1) [7]: 125 ± 4 × 10^6 s^−1

Relaxivity per Gd, 20 MHz [3]: 11.4 mM⁻¹ s⁻¹
Relaxivity per Gd, 60 MHz [3]: 10.6 mM⁻¹ s⁻¹
Relaxivity per Gd, 200 MHz [3]: 7.5 mM⁻¹ s⁻¹
Relaxivity per Gd, 400 MHz [3]: 5.7 mM⁻¹ s⁻¹
Relaxivity per Gd, 500 MHz [3]: 4.5 mM⁻¹ s⁻¹
r1 [0.47 T], per Gd [3]: 13.1 mM⁻¹ s⁻¹
r1 [1.4 T], per Gd [3]: 12.2 mM⁻¹ s⁻¹
r1 [0.47 T], per molecule [3]: 26.2 mM⁻¹ s⁻¹
r1 [1.4 T], per molecule [3]: 24.4 mM⁻¹ s⁻¹
relaxivity r1, cyclic versus linearized (reduced) multimer [4]: 10.5 mM⁻¹ s⁻¹
Relaxivity per Gd, TCEP reduced [4]: 9 mM⁻¹ s⁻¹
Relaxivity per Gd, cyclic [4]: 10.5 mM⁻¹ s⁻¹
Compound: H2N—C(S^cycl)PG-DOTAla(Gd)-G-DOTAla(Gd)-GC(S^cycl)CON H2 [Gd2C2]

Compound: 2,2′-(4-(2-carboxy-2-(2-(4-isobutylphenyl)propanamido)ethyl)-10-(phosphonomethyl)-1,4,7,10-tetraazacyclododecane-1,7-diyl)diacetic acid [Gd(5a)]
r1 (20 MHz, 37° C., mM^−1s^−1) [1]: 5.4 mM⁻¹ s⁻¹
r1 (60 MHz, 37° C., mM^−1s^−1) [1]: 4.1 mM⁻¹ s⁻¹
^310 TM (ns) [7]: 6.36 ± 0.09 ns
^310kex × 10^6 (s^−1) [7]: 158 ± 3 × 10^6 s^−1
ΔH^‡ [7]: 5.492 ± 0.421 kcal/mol

r1 (20 MHz, 37° C., mM^−1s^−1) [1]: 3.2 mM⁻¹ s⁻¹
r1 (60 MHz, 37° C., mM^−1s^−1) [1]: 3.0 mM⁻¹ s⁻¹
Compound: CC(C)Cc1ccc(C(C)C(=O)NCCNC(=O)C(N)CN2CCN(CC(=O)O)CCN(CP(=O)(O)O)CCN(CC(=O)O)CC2)cc1 (stereo not shown) [Gd(5b), 2, 2′-(4-(2-amino-3-((2-(2-(4-isobutylphenyl)propanamido)ethyl)amino)-3-oxopropyl)-10-(phosphonomethyl)-1,4,7,10-tetraazacyclododecane-1,7-diyl)diacetic acid]
